Experimental data published in US11684607B2, “Secnidazole for use in the treatment of bacterial vaginosis” (priority 2014, dated 2023).
Like-named read-outs stand apart in the source and are kept apart here.

Test: Effect of a single 2 g dose of SYM-1219 on the plasma pharmacokinetics of EE2 and NET in healthy female subjects
Assay type: in vivo, human
Method: Methods: Fifty-four (54) healthy female subjects, ages 18-65, received EE2/NET alone and in combination, where SYM-1219+EE2/NET were co-administered on Day 1 (Group B1; N=27) or SYM-1219 on Day 1 and EE2/NET on Day 2 (Group B2; N=27). Serial blood samples were drawn to measure plasma concentrations of EE2/NET. […] Safety was evaluated by recording of adverse events, vital signs, ECGs and standard laboratory tests.

[1] = EE2/NET administered 1 day after SYM-1219
[2] = Group B1: Period 2 (EE2/NET followed by SYM-1219 2 grams on Day 1) vs Period 1 (EE2/NET alone)
[3] = Group B1 Period 1: EE2/NET alone
[4] = Group B1 Period 2: EE2/NET followed by SYM-1219 2 grams on Day 1
[5] = Group B2: Period 2 (SYM-1219 2 grams on Day 1, EE2/NET on Day 2) vs Period 1 (EE2/NET alone)
[6] = Group B2: SYM-1219 2 g on Day 1, EE2/NET on Day 2
[7] = Group B2 Period 1: EE2/NET alone
[8] = Group B2 Period 2: SYM-1219 2 grams on Day 1, EE2/NET on Day 2

With `C#C[C@]1(O)CC[C@H]2[C@@H]3CCC4=CC(=O)CC[C@@H]4[C@H]3CC[C@@]21C` [NET, norethindrone] the “NET Cmax, AUC0-t or AUC0-∞ increase” value [1] was 9-16%, the “NET upper value of the 90% CI for Cmax” value [1] was 131% and the “NET AUC0-t, Geometric LSMean % Ratio (100 * Test/Reference)” value [2] was 115.52%. The “NET AUC0-∞, Geometric LSMean % Ratio (100 * Test/Reference)” value [2] was 116.27%, the “NET Cmax, Geometric LSMean % Ratio (100 * Test/Reference)” value [2] was 113.18% and the “NET Cmax and AUC increase” value (Group B1: SYM-1219 2 g and EE2/NET co-administered on Day 1) was 13%. For the same compound, the “NET λz, Mean” value [3] was 0.07709 h⁻¹, the “NET λz, Median” value [3] was 0.07966 h⁻¹ and the “NET λz, Mean” value [4] was 0.07886 h⁻¹. For the same compound, the “NET λz, Median” value [4] was 0.07642 h⁻¹, the “NET AUC0-t, Geometric LSMean % Ratio (100 * Test/Reference)” value [5] was 110.78% and the “NET AUC0-∞, Geometric LSMean % Ratio (100 * Test/Reference)” value [5] was 108.75%. The “NET Cmax, Geometric LSMean % Ratio (100 * Test/Reference)” value [5] was 116.46%, the “NET Cmax increase” value [6] was 16% and the “change in NET AUC” value [6] was “no change”. The “NET λz, Mean” value [7] was 0.07369 h⁻¹, the “NET λz, Median” value [7] was 0.07458 h⁻¹ and the “NET Cmax, Mean” value [8] was 10.6 ng/mL. For the same compound, the “NET λz, Mean” value [8] was 0.07685 h⁻¹, the “NET λz, Median” value [8] was 0.07539 h⁻¹ and the “NET Cmax, AUC0-t or AUC0-∞ increase” value (SYM-1219 administered immediately after EE2/NET) was 13-16%. For the same compound, the AUC(0-t) (female, human, plasma, Group B1 Period 1: EE2/NET alone, read-out: NET AUC0-t, Geometric LSMeans) was 42.2 ng·h/mL, the AUC(0-t) (female, human, plasma, Group B1 Period 1: EE2/NET alone, read-out: NET AUC0-t, Mean) was 49.4 ng·h/mL and the AUC(0-t) (female, human, plasma, Group B1 Period 1: EE2/NET alone, read-out: NET AUC0-t, Median) was 38.7 ng·h/mL. For the same compound, the AUC(0-inf) (female, human, plasma, Group B1 Period 1: EE2/NET alone, read-out: NET AUC0-∞, Geometric LSMeans) was 48.5 ng·h/mL, the AUC(0-inf) (female, human, plasma, Group B1 Period 1: EE2/NET alone, read-out: NET AUC0-∞, Mean) was 57.8 ng·h/mL and the AUC(0-inf) (female, human, plasma, Group B1 Period 1: EE2/NET alone, read-out: NET AUC0-∞, Median) was 45.3 ng·h/mL. The Cmax (female, human, plasma, Group B1 Period 1: EE2/NET alone, read-out: NET Cmax, Geometric LSMeans) was 8.09 ng/mL, the Cmax (female, human, plasma, Group B1 Period 1: EE2/NET alone, read-out: NET Cmax, Mean) was 9.18 ng/mL and the Cmax (female, human, plasma, Group B1 Period 1: EE2/NET alone, read-out: NET Cmax, Median) was 8 ng/mL. The Tmax (female, human, plasma, Group B1 Period 1: EE2/NET alone, read-out: NET Tmax, Median) was 1 h, the half-life (female, human, plasma, Group B1 Period 1: EE2/NET alone, read-out: NET t1/2, Mean (converted)) was 9.6 h and the half-life (female, human, plasma, Group B1 Period 1: EE2/NET alone, read-out: NET t1/2, Median (converted)) was 8.71 h. It also gave an AUC(0-t) (female, human, plasma, Group B1 Period 2: EE2/NET followed by SYM-1219 2 grams on Day 1, read-out: NET AUC0-t, Geometric LSMeans) of 48.7 ng·h/mL, an AUC(0-t) (female, human, plasma, Group B1 Period 2: EE2/NET followed by SYM-1219 2 grams on Day 1, read-out: NET AUC0-t, Mean) of 53.5 ng·h/mL and an AUC(0-t) (female, human, plasma, Group B1 Period 2: EE2/NET followed by SYM-1219 2 grams on Day 1, read-out: NET AUC0-t, Median) of 48.9 ng·h/mL. The AUC(0-inf) (female, human, plasma, Group B1 Period 2: EE2/NET followed by SYM-1219 2 grams on Day 1, read-out: NET AUC0-∞, Geometric LSMeans) was 56.4 ng·h/mL, the AUC(0-inf) (female, human, plasma, Group B1 Period 2: EE2/NET followed by SYM-1219 2 grams on Day 1, read-out: NET AUC0-∞, Mean) was 62.4 ng·h/mL and the AUC(0-inf) (female, human, plasma, Group B1 Period 2: EE2/NET followed by SYM-1219 2 grams on Day 1, read-out: NET AUC0-∞, Median) was 54.3 ng·h/mL. The Cmax (female, human, plasma, Group B1 Period 2: EE2/NET followed by SYM-1219 2 grams on Day 1, read-out: NET Cmax, Geometric LSMeans) was 9.16 ng/mL, the Cmax (female, human, plasma, Group B1 Period 2: EE2/NET followed by SYM-1219 2 grams on Day 1, read-out: NET Cmax, Mean) was 10.1 ng/mL and the Cmax (female, human, plasma, Group B1 Period 2: EE2/NET followed by SYM-1219 2 grams on Day 1, read-out: NET Cmax, Median) was 9.45 ng/mL. For the same compound, the half-life (female, human, plasma, Group B1 Period 2: EE2/NET followed by SYM-1219 2 grams on Day 1, read-out: NET t1/2, Mean (converted)) was 9.6 h, the half-life (female, human, plasma, Group B1 Period 2: EE2/NET followed by SYM-1219 2 grams on Day 1, read-out: NET t1/2, Median (converted)) was 9.12 h and the AUC(0-t) (female, human, plasma, Group B2 Period 1: EE2/NET alone, read-out: NET AUC0-t, Geometric LSMeans) was 46.9 ng·h/mL. The AUC(0-t) (female, human, plasma, Group B2 Period 1: EE2/NET alone, read-out: NET AUC0-t, Mean) was 61.4 ng·h/mL, the AUC(0-t) (female, human, plasma, Group B2 Period 1: EE2/NET alone, read-out: NET AUC0-t, Median) was 41.7 ng·h/mL and the AUC(0-inf) (female, human, plasma, Group B2 Period 1: EE2/NET alone, read-out: NET AUC0-∞, Geometric LSMeans) was 55.1 ng·h/mL. The AUC(0-inf) (female, human, plasma, Group B2 Period 1: EE2/NET alone, read-out: NET AUC0-∞, Mean) was 75 ng·h/mL, the AUC(0-inf) (female, human, plasma, Group B2 Period 1: EE2/NET alone, read-out: NET AUC0-∞, Median) was 47.4 ng·h/mL and the Cmax (female, human, plasma, Group B2 Period 1: EE2/NET alone, read-out: NET Cmax, Geometric LSMeans) was 8.36 ng/mL. The Cmax (female, human, plasma, Group B2 Period 1: EE2/NET alone, read-out: NET Cmax, Mean) was 9.63 ng/mL, the Cmax (female, human, plasma, Group B2 Period 1: EE2/NET alone, read-out: NET Cmax, Median) was 8.16 ng/mL and the half-life (female, human, plasma, Group B2 Period 1: EE2/NET alone, read-out: NET t1/2, Mean (converted)) was 10 h. For the same compound, the half-life (female, human, plasma, Group B2 Period 1: EE2/NET alone, read-out: NET t1/2, Median (converted)) was 9.29 h, the AUC(0-t) (female, human, plasma, Group B2 Period 2: SYM-1219 2 grams on Day 1, EE2/NET on Day 2, read-out: NET AUC0-t, Geometric LSMeans) was 51.9 ng·h/mL and the AUC(0-t) (female, human, plasma, Group B2 Period 2: SYM-1219 2 grams on Day 1, EE2/NET on Day 2, read-out: NET AUC0-t, Mean) was 61.2 ng·h/mL. The AUC(0-t) (female, human, plasma, Group B2 Period 2: SYM-1219 2 grams on Day 1, EE2/NET on Day 2, read-out: NET AUC0-t, Median) was 44.5 ng·h/mL, the AUC(0-inf) (female, human, plasma, Group B2 Period 2: SYM-1219 2 grams on Day 1, EE2/NET on Day 2, read-out: NET AUC0-∞, Geometric LSMeans) was 60 ng·h/mL and the AUC(0-inf) (female, human, plasma, Group B2 Period 2: SYM-1219 2 grams on Day 1, EE2/NET on Day 2, read-out: NET AUC0-∞, Mean) was 71.5 ng·h/mL. It also gave an AUC(0-inf) (female, human, plasma, Group B2 Period 2: SYM-1219 2 grams on Day 1, EE2/NET on Day 2, read-out: NET AUC0-∞, Median) of 51.6 ng·h/mL, a Cmax (female, human, plasma, Group B2 Period 2: SYM-1219 2 grams on Day 1, EE2/NET on Day 2, read-out: NET Cmax, Geometric LSMeans) of 9.74 ng/mL and a Cmax (female, human, plasma, Group B2 Period 2: SYM-1219 2 grams on Day 1, EE2/NET on Day 2, read-out: NET Cmax, Mean) of 10.7 ng/mL. It also gave a Cmax (female, human, plasma, Group B2 Period 2: SYM-1219 2 grams on Day 1, EE2/NET on Day 2, read-out: NET Cmax, Median) of 9.39 ng/mL, a half-life (female, human, plasma, Group B2 Period 2: SYM-1219 2 grams on Day 1, EE2/NET on Day 2, read-out: NET t1/2, Mean (converted)) of 9.51 h and a half-life (female, human, plasma, Group B2 Period 2: SYM-1219 2 grams on Day 1, EE2/NET on Day 2, read-out: NET t1/2, Median (converted)) of 9.19 h.
